# Measured values as given in ChEMBL document CHEMBL2073948, “Interactions of the human multidrug resistance proteins MRP1 and MRP2 with organic anions” (Mol Pharmacol, 2000).
# Experiments:
# Assay type in all cases: functional, cell membranes, Membrane vesicle
# [1] = molecular target: T1, ATP-binding cassette sub-family C member 2 (Homo sapiens, UniProt Q92887); test: TP_TRANSPORTER: uptake in membrane vesicles from MRP2-expressing Sf9 cells
# [2] = molecular target: T2, Multidrug resistance-associated protein 1 (Homo sapiens, UniProt P33527); test: TP_TRANSPORTER: uptake in membrane vesicles from MRP1-expressing Sf9 cells
# T2 sequence (P33527 whole entry): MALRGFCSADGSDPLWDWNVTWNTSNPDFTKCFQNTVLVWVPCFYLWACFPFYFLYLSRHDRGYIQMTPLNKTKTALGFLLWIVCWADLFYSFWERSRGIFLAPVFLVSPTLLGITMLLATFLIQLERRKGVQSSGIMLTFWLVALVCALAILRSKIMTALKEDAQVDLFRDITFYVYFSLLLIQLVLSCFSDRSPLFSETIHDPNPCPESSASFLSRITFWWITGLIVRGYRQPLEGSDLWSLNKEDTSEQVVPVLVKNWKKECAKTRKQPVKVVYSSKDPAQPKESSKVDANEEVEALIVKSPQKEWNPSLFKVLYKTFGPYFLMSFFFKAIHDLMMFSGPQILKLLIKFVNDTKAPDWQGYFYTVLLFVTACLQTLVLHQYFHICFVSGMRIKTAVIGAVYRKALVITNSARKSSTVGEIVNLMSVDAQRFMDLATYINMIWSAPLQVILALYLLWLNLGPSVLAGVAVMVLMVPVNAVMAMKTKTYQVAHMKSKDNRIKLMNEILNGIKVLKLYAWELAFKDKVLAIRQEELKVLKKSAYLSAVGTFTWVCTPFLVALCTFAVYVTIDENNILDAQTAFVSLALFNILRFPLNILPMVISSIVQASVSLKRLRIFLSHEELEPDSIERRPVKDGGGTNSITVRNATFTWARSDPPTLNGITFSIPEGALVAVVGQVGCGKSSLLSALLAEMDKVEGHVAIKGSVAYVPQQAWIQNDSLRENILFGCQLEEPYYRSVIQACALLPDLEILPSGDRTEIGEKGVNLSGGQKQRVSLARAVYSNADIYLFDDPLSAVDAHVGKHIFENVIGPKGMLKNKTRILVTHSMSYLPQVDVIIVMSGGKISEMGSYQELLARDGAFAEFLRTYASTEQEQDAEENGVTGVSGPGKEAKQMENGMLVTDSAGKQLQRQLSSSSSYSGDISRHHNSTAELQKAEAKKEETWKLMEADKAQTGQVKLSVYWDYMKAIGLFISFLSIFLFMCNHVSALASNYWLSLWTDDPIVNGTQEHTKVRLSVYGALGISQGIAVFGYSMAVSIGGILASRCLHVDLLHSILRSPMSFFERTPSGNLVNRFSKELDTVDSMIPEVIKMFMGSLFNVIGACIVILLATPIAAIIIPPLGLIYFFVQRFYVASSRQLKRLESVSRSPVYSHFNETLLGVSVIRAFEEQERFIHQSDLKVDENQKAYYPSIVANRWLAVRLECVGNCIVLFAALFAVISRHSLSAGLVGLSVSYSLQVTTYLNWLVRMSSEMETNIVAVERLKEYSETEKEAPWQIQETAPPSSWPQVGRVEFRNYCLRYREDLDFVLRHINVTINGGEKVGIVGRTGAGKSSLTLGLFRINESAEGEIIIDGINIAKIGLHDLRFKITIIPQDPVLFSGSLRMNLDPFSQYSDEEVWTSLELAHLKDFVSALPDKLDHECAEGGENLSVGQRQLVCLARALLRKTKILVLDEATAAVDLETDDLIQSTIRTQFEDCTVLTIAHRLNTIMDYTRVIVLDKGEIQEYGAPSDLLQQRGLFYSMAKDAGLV
# [3] = molecular target: T1, ATP-binding cassette sub-family C member 2; test: TP_TRANSPORTER: inhibition of NEM-GS uptake (NEM-GS: 4 uM, Furosemide: 5000 uM) in membrane vesicles from MRP2-expressing Sf9 cells; conditions: sf9, 5000 µM
# [4] = molecular target: T1, ATP-binding cassette sub-family C member 2; test: TP_TRANSPORTER: inhibition of NEM-GS uptake (NEM-GS: 4 uM, Probenecid: <1000 uM) in membrane vesicles from MRP2-expressing Sf9 cells
# [5] = molecular target: T2, Multidrug resistance-associated protein 1; test: TP_TRANSPORTER: inhibition of NEM-GS uptake (NEM-GS: 4 uM, Probenecid: <1000 uM) in membrane vesicles from MRP1-expressing Sf9 cells
# T1 sequence (Q92887 whole entry): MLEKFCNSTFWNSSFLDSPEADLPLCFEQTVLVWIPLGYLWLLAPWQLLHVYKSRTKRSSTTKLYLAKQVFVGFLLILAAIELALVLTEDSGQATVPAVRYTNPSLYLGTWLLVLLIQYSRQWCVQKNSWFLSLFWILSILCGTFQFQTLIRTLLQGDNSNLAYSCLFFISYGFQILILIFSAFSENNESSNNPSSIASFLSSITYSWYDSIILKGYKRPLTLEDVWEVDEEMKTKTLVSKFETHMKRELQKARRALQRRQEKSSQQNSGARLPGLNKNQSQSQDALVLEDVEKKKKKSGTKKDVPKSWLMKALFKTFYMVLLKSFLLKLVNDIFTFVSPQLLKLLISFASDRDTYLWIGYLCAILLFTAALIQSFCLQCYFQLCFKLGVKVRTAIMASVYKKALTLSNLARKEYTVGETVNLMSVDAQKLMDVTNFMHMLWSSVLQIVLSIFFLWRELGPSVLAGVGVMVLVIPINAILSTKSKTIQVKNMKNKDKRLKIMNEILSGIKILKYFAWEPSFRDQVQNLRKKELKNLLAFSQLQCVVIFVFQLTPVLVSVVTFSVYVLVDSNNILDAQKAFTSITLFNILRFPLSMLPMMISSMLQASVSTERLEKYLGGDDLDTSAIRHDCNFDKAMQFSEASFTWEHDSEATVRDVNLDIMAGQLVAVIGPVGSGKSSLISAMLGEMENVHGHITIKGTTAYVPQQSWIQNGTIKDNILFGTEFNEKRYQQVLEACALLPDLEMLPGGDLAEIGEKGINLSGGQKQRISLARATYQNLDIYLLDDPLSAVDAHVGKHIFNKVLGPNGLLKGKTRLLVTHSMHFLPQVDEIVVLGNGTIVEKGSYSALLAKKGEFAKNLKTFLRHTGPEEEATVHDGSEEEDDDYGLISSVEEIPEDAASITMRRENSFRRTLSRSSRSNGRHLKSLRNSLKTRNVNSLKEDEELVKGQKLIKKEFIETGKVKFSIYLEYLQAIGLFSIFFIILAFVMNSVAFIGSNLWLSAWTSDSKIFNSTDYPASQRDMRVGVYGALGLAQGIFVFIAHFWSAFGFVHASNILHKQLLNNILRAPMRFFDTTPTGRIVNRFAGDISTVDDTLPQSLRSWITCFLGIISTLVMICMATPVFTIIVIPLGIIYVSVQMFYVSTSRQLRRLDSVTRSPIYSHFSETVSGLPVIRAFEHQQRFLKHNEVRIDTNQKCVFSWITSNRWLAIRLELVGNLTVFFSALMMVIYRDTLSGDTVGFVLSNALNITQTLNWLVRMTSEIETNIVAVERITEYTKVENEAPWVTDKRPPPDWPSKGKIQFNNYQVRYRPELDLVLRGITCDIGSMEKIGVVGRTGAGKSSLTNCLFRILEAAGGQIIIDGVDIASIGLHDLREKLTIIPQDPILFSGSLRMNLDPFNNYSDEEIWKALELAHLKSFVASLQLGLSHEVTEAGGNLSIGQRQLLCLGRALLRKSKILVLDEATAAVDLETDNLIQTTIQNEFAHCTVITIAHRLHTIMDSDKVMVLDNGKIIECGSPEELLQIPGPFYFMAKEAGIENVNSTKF
smiles,measurement,setting,value
NC(CCC(=O)NC(CNCC(=O)O)CSCCN1C(=O)C=CC1=O)C(=O)O (stereo not given),K1/2,[1],2500 µM
same,K1/2,[2],200 µM
NS(=O)(=O)c1cc(C(=O)O)c(NCc2ccco2)cc1Cl [FUROSEMIDE],Activity,[3],inhibitor [+]
CCCN(CCC)S(=O)(=O)c1ccc(C(=O)O)cc1 [PROBENECID],Activity,[4],inhibitor [+]
same,Activity,[5],inhibitor [+]
